The conditions of data set [1]: cited from earlier work.
The subject of data set [2] is cytochrome P450 3A (CYP3A). Also on record: method as in unpublished data. Particulars: human liver microsomes; ref unpublished data; cited from earlier work. (In general: Microsomes from liver hold many membrane-bound enzymes, among them those of drug oxidation.)
Data set [3] in a line: Part B: single-dose PK of 20 mg zanubrutinib alone and with steady-state itraconazole (CYP3A inhibition) in healthy subjects. Type of data set: in vivo, human. As to conditions: for CL/F / AUC(0-inf) / Cmax / half-life / Vd/F: geometric mean (CV%); for AUC(0-inf) / Cmax / half-life / Vd/F / Tmax: both sexes, human, plasma; for Vd/F: read-out: Vz/F; for Tmax: median (min–max). The method, then: (§1) This was an open-label, parallel-group, fixed-sequence study in healthy male and female subjects conducted in two parts, Part A and Part B. Part A investigated the effect of CYP3A induction by steady-state rifampin on the single-dose PK of 320 mg zanubrutinib, and Part B investigated the effect of CYP3A inhibition by steady-state itraconazole on the single-dose PK of 20 mg zanubrutinib.
(§2) In Part A, participants received a single oral dose of zanubrutinib (320 mg) in the fasted state on Day 1 and Day 10. Oral rifampin (600 mg/day, Rifampin, VersaPharm Inc., Marietta, GA, USA) was administered once daily in the fasted state on Days 3 through 11. In Part B, participants received a single oral dose of zanubrutinib (20 mg) in the fasted state on Day 1 and Day 6. Oral itraconazole (200 mg/day, Sporanox® capsules, Janssen Pharmaceuticals, Titusville, NJ, USA) was administered once-daily approximately 30 min after completing a meal on Days 3, 4, 5, and 7, and in the fasted state on Day 6.
(§3) Serial blood samples were collected with zanubrutinib alone and when combined with rifampin or itraconazole for the measurement of zanubrutinib plasma concentrations. Plasma samples were collected at predose, 0.5, 1, 1.5, 2, 3, 4, 6, 8, 12, 24, 36, and 48 h postdose on Day 1 and Day 10 in Part A and on Day 1 and Day 6 in Part B.
(§4) Plasma concentrations of zanubrutinib were determined using validated high-performance liquid chromatography coupled with tandem mass spectrometry (HPLC–MS/MS) (Xenobiotic Laboratories, NJ, USA). Protein precipitation was utilized to extract the analyte and internal standard from human plasma containing dipotassium ethylenediaminetetraacetic acid (K2EDTA) as anticoagulant. The analytical method utilized a reversed-phase HPLC column (Supelco Ascentis Express C18 20 × 2.1 mm, 2.7 µm) with a gradient flow of 0.1% formic acid in water (Mobile Phase A) and methanol:acetonitrile (1:1) (Mobile Phase B) at a rate of 0.5 mL/min. The analyte and internal standard were detected using an AB Sciex API-4000 LC–MS/MS system equipped with a positive ESI ion detection.
(§5) The calibration range of zanubrutinib in the assay was 1.00 to 1000 ng/mL using a 50 μL aliquot of plasma, with the lower limit of quantification of 1.00 ng/mL.
(§6) Noncompartmental PK analysis was conducted using the Phoenix® WinNolin® software (Version 6.4). PK parameters were derived for zanubrutinib alone and in combination with rifampin or itraconazole, including area under the plasma concentration–time curve (AUC), maximum observed plasma concentration (Cmax), time of the maximum observed plasma concentration (tmax), apparent terminal elimination half-life (t1/2), apparent total oral clearance (CL/F), and apparent volume of distribution during the terminal elimination phase (Vz/F). Log-transformed area under the curve from time 0 extrapolated to time t (AUC0–t), area under the curve from time 0 extrapolated to infinite time (AUC0–∞), and Cmax of zanubrutinib were analyzed using a mixed model for each part of the study, including treatments as a fixed effect and subject as a random effect. Estimates of geometric mean ratios (GMRs) and the corresponding 90% confidence intervals (CIs) were derived for the comparisons of AUC0–∞, and Cmax as follows:
Part B: zanubrutinib coadministration with itraconazole (test) versus zanubrutinib alone (reference).

Data set [4] is described as follows: Safety and tolerability (TEAEs, laboratory, vital signs, QTcF) in healthy subjects, Parts A and B. Type of data set: in vivo, human. An excerpt: Treatment-emergent adverse events (TEAEs) are summarized by part, treatment, National Cancer Institute Common Terminology Criteria for Adverse Events (v4.03) grade, and relationship to study drugs (zanubrutinib, rifampin, and itraconazole). The frequency of TEAEs is summarized by part, treatment, and Medical Dictionary for Regulatory Activities (MedDRA) system organ class (SOC) and preferred term. The summary and frequency TEAE tables are presented for all causalities and for those TEAEs considered related to the study drugs.

Data set [5] in a line: Part A: single-dose PK of 320 mg zanubrutinib alone and with steady-state rifampin (CYP3A induction) in healthy subjects. Type of data set: in vivo, human. As to conditions: for CL/F / AUC(0-inf) / Cmax / half-life / Vd/F: geometric mean (CV%); for AUC(0-inf) / Cmax / half-life / Vd/F / Tmax: both sexes, human, plasma; for Vd/F: read-out: Vz/F; for Tmax: median (min–max). The method, then:
as §1, §2, §3, §4, §5, §6
Part A: zanubrutinib coadministration with rifampin (test) versus zanubrutinib alone (reference),

The conditions of data set [6]: cited from earlier work. The source holds these as a separate data set.
Where [7] appears, read: 20 mg zanubrutinib with 200 mg itraconazole vs alone.
The mark [8] stands for this setting: oral, 20 mg zanubrutinib + 200 mg itraconazole QD, Day 6.
Where [9] appears, read: oral, 20 mg, Asian subjects, Part B Day 1, 20 mg zanubrutinib alone.
The mark [10] stands for this setting: oral, 20 mg, Non-Asian subjects, Part B Day 1, 20 mg zanubrutinib alone.
Where [11] appears, read: oral, Asian subjects, Part B Day 6, zanubrutinib + itraconazole.
[12] abbreviates: oral, Non-Asian subjects, Part B Day 6, zanubrutinib + itraconazole.
[13] abbreviates: oral, 20 mg zanubrutinib + 200 mg itraconazole QD.
[14] abbreviates: zanubrutinib in combination with itraconazole versus zanubrutinib alone.
Where [15] appears, read: 320 mg zanubrutinib with 600 mg rifampin vs alone.
The mark [16] stands for this setting: oral, 320 mg zanubrutinib + 600 mg rifampin QD, Day 10.
Where [17] appears, read: oral, 320 mg, Asian subjects, Part A Day 1, 320 mg zanubrutinib alone.
Where [18] appears, read: oral, 320 mg, Non-Asian subjects, Part A Day 1, 320 mg zanubrutinib alone.
Where [19] appears, read: oral, Asian subjects, Part A Day 10, zanubrutinib + rifampicin.
Where [20] appears, read: oral, Non-Asian subjects, Part A Day 10, zanubrutinib + rifampicin.
Setting [21] is: oral, 320 mg zanubrutinib + 600 mg rifampin QD.
[22] abbreviates: oral, 320 mg zanubrutinib alone.
[23] abbreviates: zanubrutinib in combination with rifampin versus zanubrutinib alone.
The mark [24] stands for this setting: patients with B-cell malignancies.

The structures appear in SMILES notation. Where “and” joins values, the source holds several entries; their conditions need not be identical. Identical values can stand only once. Like-named read-outs stand apart in the source and are kept apart here.

For `CC#CC(=O)N1CCC[C@H]1c1nc(-c2ccc(C(=O)Nc3ccccn3)cc2)c2c(N)nccn12` [acalabrutinib], in data set [1], the “decrease in AUC with rifampin” value is listed as 77% and the “increase in AUC with itraconazole” value is listed as 5.1 fold.
`C=CC(=O)N1CCC[C@@H](n2nc(-c3ccc(Oc4ccccc4)cc3)c3c(N)ncnc32)C1` [ibrutinib]: the “increase in AUC with ketoconazole” value in data set [1] is given as 24 fold.
Take `C=CC(=O)N1CCC([C@@H]2CCNc3c(C(N)=O)c(-c4ccc(Oc5ccccc5)cc4)nn32)CC1` [zanubrutinib, Zanubrutinib]: the “pathway of oxidative metabolism” value in data set [2] is given as “largely mediated through the cytochrome P450 3A (CYP3A) pathway”. For the same compound, the CL/F in data set [3] (20 mg zanubrutinib + 200 mg itraconazole QD) is 29 (31) L/h; in data set [3] (20 mg zanubrutinib alone) it was 109 (29) L/h; in data set [5] (320 mg zanubrutinib + 600 mg rifampin QD), 1249 L/h and 1249 (43) L/h; in data set [5] (320 mg zanubrutinib alone), 93 L/h and 93 (36) L/h. Also, the “PK, Asian versus non-Asian subjects” value in data set [3] (20 mg zanubrutinib alone on Day 1 and with 200 mg itraconazole on Day 6) is “comparable between Asian and non-Asian subjects”. For the same compound, in data set [3] (setting [7]), the “increase of AUC0–∞ on coadministration with itraconazole” value is 3.8 fold and < 4 fold. In addition, the “increase of Cmax on coadministration with itraconazole” value in data set [3] (setting [7]) amounted to 2.6 fold. Besides, the total exposure AUC(0-inf) (as a rule, the area under the concentration-time curve extrapolated to infinity) in data set [3] (setting [8]) was 693 ng·h/mL; in data set [3] (setting [9]) it was 174 ng·h/mL; in data set [3] (setting [10]), 192 ng·h/mL; in data set [3] (setting [11]), 694 ng·h/mL; in data set [3] (setting [12]), 693 ng·h/mL; in data set [3] (po, 20 mg, 20 mg zanubrutinib alone, single oral dose, fasted, Day 1), 184 ng·h/mL. In addition, the AUC(0-inf) was found to be 261 ng·h/mL in data set [5] (setting [16]); 3460 ng·h/mL in data set [5] (setting [17]); 3410 ng·h/mL in data set [5] (setting [18]); 213 ng·h/mL in data set [5] (setting [19]); 293 ng·h/mL in data set [5] (setting [20]); 3520 ng·h/mL in data set [5] (po, 320 mg, 320 mg zanubrutinib alone, single oral dose, fasted, Day 1). Further, the Cmax – broadly, the maximum level reached in the sampled fluid or tissue – worked out at 122 ng/mL in data set [3] (setting [8]); 48 ng/mL in data set [3] (oral, 20 mg, 20 mg zanubrutinib alone, Day 1); 50 ng/mL in data set [3] (setting [9]); 46 ng/mL in data set [3] (setting [10]); 124 ng/mL in data set [3] (setting [11]); 120 ng/mL in data set [3] (setting [12]). Besides, the Cmax in data set [5] (setting [16]) amounted to 42 ng/mL; in data set [5] (oral, 320 mg, 320 mg zanubrutinib alone, Day 1), 532 ng/mL; in data set [5] (setting [17]) it was 543 ng/mL; in data set [5] (setting [18]), 525 ng/mL; in data set [5] (setting [19]), 41 ng/mL; in data set [5] (setting [20]), 43 ng/mL. The half-life (in general, how long it takes for the measured level to halve) in data set [3] (setting [13]) was 4.3 h; in data set [3] (oral, 20 mg zanubrutinib alone, terminal phase may not be adequately characterized), 2.2 h; in data set [5] (setting [21]), 4.8 h; in data set [5] (setting [22]), 6.8 h. Besides, the Vd/F came to 178 L in data set [3] (setting [13]); 341 L in data set [3] (oral, 20 mg zanubrutinib alone); 8660 L in data set [5] (setting [21]); 914 L in data set [5] (setting [22]). Besides, the time to peak (Tmax) – broadly, the time from dosing to the highest level – in data set [3] (setting [13]) was found to be 2 h; in data set [3] (oral, 20 mg zanubrutinib alone) it was 1.5 h; in data set [5] (setting [21]), 2 h; in data set [5] (setting [22]) it was 2 h. Also, the “AUC0–∞ geometric ratio of adjusted means (90% CI)” value in data set [3] (setting [14]) is 378% and 378 (344, 415) %; in data set [5] (setting [23]), 7.4% and 7.4 (6.0, 9.1) %. For the same compound, the “Cmax geometric ratio of adjusted means (90% CI)” value in data set [3] (setting [14]) was 257% and 257 (226, 291) %; in data set [5] (setting [23]) it was 7.9% and 7.9 (6.6, 9.5) %. For the same compound, in data set [4] (both Part A and Part B), the “overall incidence of TEAEs” value was “less than 30%”. Also, the “severity of TEAEs / SAEs / discontinuation” value in data set [4] (both parts, NCI CTCAE v4.03) was “no subject reported a TEAE higher than Grade 2 or an SAE, and no subject discontinued due to a TEAE”. The QTcF result in data set [4] (during the study) is listed as “No subject had a QTcF value > 450 ms or an increase from baseline in QTcF of > 60 ms”. The tolerability result was “well tolerated” in data set [4] (single doses of 320 mg and 20 mg zanubrutinib alone or with 600 mg rifampin / 200 mg itraconazole, healthy subjects); “generally well tolerated” in data set [6] (patients with B-cell malignancies, total daily doses 40 to 320 mg). For the same compound, the “PK parameters, Asian versus non-Asian subjects” value in data set [5] (320 mg zanubrutinib alone on Day 1 and with 600 mg rifampin on Day 10) was “comparable between Asian and non-Asian subjects”. Besides, the “decrease of AUC0–∞ on coadministration with rifampin” value in data set [5] (setting [15]) is 13.5 fold. Moreover, the “decrease of Cmax on coadministration with rifampin” value in data set [5] (setting [15]) is on record as 12.6 fold. Besides, in data set [6] (patients with B-cell malignancies, PK generally assessed only for 8 h post-dose), the mean half-life is 2 to 4 h. The “accumulation after repeated dosing” value in data set [6] (setting [24]) is recorded as “minimal accumulation”. Also, in data set [6] (setting [24]), the “time of Cmax after oral dosing” value is recorded as “approximately 2 h”. The “dose dependence of exposure” value in data set [6] (total daily doses of 40–320 mg) is recorded as “increased in a dose-proportional manner”.

The values are drawn from article PMC7015960, “Effect of rifampin and itraconazole on the pharmacokinetics of zanubrutinib (a Bruton's tyrosine kinase inhibitor) in Asian and non-Asian healthy subjects” (Cancer Chemotherapy and Pharmacology, 2019).
